Test results from ChEMBL document CHEMBL5303573, “Mapping human microbiome drug metabolism by gut bacteria and their genes” (Nature, 2019).

Legend:
[1] = The drug is tested on Collinsella intestinalis strain: DSM13280 for biotransformation. The drug concentrations were measured before and after a 12-h incubation by liquid-chromatography-coupled mass spectrometry (LC–MS); conditions: 2 µM
[2] = The drug is tested on Alistipes indistinctus strain: DSM22520 for biotransformation. The drug concentrations were measured before and after a 12-h incubation by liquid-chromatography-coupled mass spectrometry (LC–MS); conditions: 2 µM
[3] = The drug is tested on Bacteroides coprophilus strain: DSM18228 for biotransformation. The drug concentrations were measured before and after a 12-h incubation by liquid-chromatography-coupled mass spectrometry (LC–MS); conditions: 2 µM
[4] = The drug is tested on Bacteroides ovatus strain: ATCC8483 for biotransformation. The drug concentrations were measured before and after a 12-h incubation by liquid-chromatography-coupled mass spectrometry (LC–MS); conditions: 2 µM
[5] = The drug is tested on Bacteroides pectinophilus strain: ATCC43243 for biotransformation. The drug concentrations were measured before and after a 12-h incubation by liquid-chromatography-coupled mass spectrometry (LC–MS); conditions: 2 µM
[6] = The drug is tested on Bacteroides sp. WH2 strain: WH2 for biotransformation. The drug concentrations were measured before and after a 12-h incubation by liquid-chromatography-coupled mass spectrometry (LC–MS); conditions: bacteroides sp. wh2, 12 h, 2 µM
[7] = The drug is tested on Bacteroides xylanisolvens strain: DSM18836 for biotransformation. The drug concentrations were measured before and after a 12-h incubation by liquid-chromatography-coupled mass spectrometry (LC–MS); conditions: 2 µM
[8] = The drug is tested on Anaerotruncus colihominis strain: DSM17241 for biotransformation. The drug concentrations were measured before and after a 12-h incubation by liquid-chromatography-coupled mass spectrometry (LC–MS); conditions: 2 µM
[9] = The drug is tested on Blautia hansenii strain: DSM20583 for biotransformation. The drug concentrations were measured before and after a 12-h incubation by liquid-chromatography-coupled mass spectrometry (LC–MS); conditions: 2 µM
[10] = The drug is tested on Blautia luti strain: DSM14534 for biotransformation. The drug concentrations were measured before and after a 12-h incubation by liquid-chromatography-coupled mass spectrometry (LC–MS); format: ADME; set-up: dose 2 uM, timepoint 0 vs 12 hours; conditions: 2 µM
[11] = The drug is tested on Clostridium ramosum strain: DSM1402 for biotransformation. The drug concentrations were measured before and after a 12-h incubation by liquid-chromatography-coupled mass spectrometry (LC–MS); conditions: thomasclavelia ramosa, 2 µM
[12] = The drug is tested on Dorea formicigenerans strain: ATCC27755 for biotransformation. The drug concentrations were measured before and after a 12-h incubation by liquid-chromatography-coupled mass spectrometry (LC–MS); conditions: 2 µM
[13] = The drug is tested on Eubacterium ventriosum strain: ATCC27560 for biotransformation. The drug concentrations were measured before and after a 12-h incubation by liquid-chromatography-coupled mass spectrometry (LC–MS); format: ADME; set-up: dose 2 uM, timepoint 0 vs 12 hours; conditions: 2 µM
[14] = The drug is tested on Subdoligranulum variabile strain: DSM15176 for biotransformation. The drug concentrations were measured before and after a 12-h incubation by liquid-chromatography-coupled mass spectrometry (LC–MS); conditions: 2 µM
[15] = The drug is tested on Edwardsiella tarda strain: ATCC23685 for biotransformation. The drug concentrations were measured before and after a 12-h incubation by liquid-chromatography-coupled mass spectrometry (LC–MS); conditions: 2 µM
[16] = The drug is tested on Escherichia coli strain: BW25113 for biotransformation. The drug concentrations were measured before and after a 12-h incubation by liquid-chromatography-coupled mass spectrometry (LC–MS); conditions: 2 µM
[17] = bacteroides fragilis, 12 h, 2 µM
Description: The drug is tested on Bacteroides fragilis strain: 3397 (T10) for biotransformation. The drug concentrations were measured before and after a 12-h incubation by liquid-chromatography-coupled mass spectrometry (LC–MS)

[18] = bacteroides fragilis, 12 h, 2 µM; remark: listed apart in the source
Description: The drug is tested on Bacteroides fragilis strain: DS-208 for biotransformation. The drug concentrations were measured before and after a 12-h incubation by liquid-chromatography-coupled mass spectrometry (LC–MS)

[19] = bacteroides thetaiotaomicron, 12 h, 2 µM
Description: The drug is tested on Bacteroides thetaiotaomicron strain: VPI-5482 for biotransformation. The drug concentrations were measured before and after a 12-h incubation by liquid-chromatography-coupled mass spectrometry (LC–MS)

[20] = bacteroides thetaiotaomicron, 12 h, 2 µM; remark: listed apart in the source
Description: The drug is tested on Bacteroides thetaiotaomicron strain: 3731 for biotransformation. The drug concentrations were measured before and after a 12-h incubation by liquid-chromatography-coupled mass spectrometry (LC–MS)

Bacterial Biotransformation [1] | Bacterial Biotransformation [2] | Bacterial Biotransformation [3] | Bacterial Biotransformation [4] | Bacterial Biotransformation [5] | Bacterial Biotransformation [6] | Bacterial Biotransformation [7] | Bacterial Biotransformation [8] | Bacterial Biotransformation [9] | Bacterial Biotransformation [10] | Bacterial Biotransformation [11] | Bacterial Biotransformation [12] | Bacterial Biotransformation [13] | Bacterial Biotransformation [14] | Bacterial Biotransformation [15] | Bacterial Biotransformation [16] | Bacterial Biotransformation [17] | Bacterial Biotransformation [18] | Bacterial Biotransformation [19] | Bacterial Biotransformation [20] | Structure (SMILES)
Compound NOT metabolized | Compound NOT metabolized | Compound NOT metabolized | Compound NOT metabolized | Compound NOT metabolized | Compound NOT metabolized | Compound NOT metabolized | Compound NOT metabolized | Compound NOT metabolized | Compound NOT metabolized | Compound NOT metabolized | Compound NOT metabolized | Compound NOT metabolized | Compound NOT metabolized | Compound NOT metabolized | Compound NOT metabolized | Compound NOT metabolized | Compound NOT metabolized | Compound NOT metabolized | Compound NOT metabolized | CN1[C@@H]2CC[C@H]1C[C@@H](OC(=O)c1c[nH]c3ccccc13)C2 [TROPISETRON]
Compound NOT metabolized | Compound NOT metabolized | Compound NOT metabolized | Compound NOT metabolized | Compound NOT metabolized | Compound NOT metabolized | Compound NOT metabolized | Compound NOT metabolized | Compound NOT metabolized | Compound NOT metabolized | Compound NOT metabolized | Compound NOT metabolized | Compound NOT metabolized | Compound NOT metabolized | Compound NOT metabolized | Compound NOT metabolized | Compound NOT metabolized | Compound NOT metabolized | Compound NOT metabolized | Compound NOT metabolized | CC1=C(CC(=O)O)c2cc(F)ccc2/C1=C\c1ccc([S+](C)[O-])cc1 (stereo not given)
Compound NOT metabolized | Compound NOT metabolized | Compound NOT metabolized | Compound NOT metabolized | Compound NOT metabolized | Compound NOT metabolized | Compound NOT metabolized | Compound NOT metabolized | Compound NOT metabolized | Compound NOT metabolized | Compound NOT metabolized | Compound NOT metabolized | Compound NOT metabolized | Compound NOT metabolized | Compound NOT metabolized | Compound NOT metabolized | Compound NOT metabolized | Compound NOT metabolized | Compound NOT metabolized | Compound NOT metabolized | CCOc1ccccc1OCCN[C@H](C)Cc1ccc(OC)c(S(N)(=O)=O)c1.Cl [TAMSULOSIN HYDROCHLORIDE]
Compound NOT metabolized | Compound NOT metabolized | Compound NOT metabolized | Compound NOT metabolized | Compound NOT metabolized | Compound NOT metabolized | Compound NOT metabolized | Compound NOT metabolized | Compound NOT metabolized | Compound NOT metabolized | Compound NOT metabolized | Compound NOT metabolized | Compound NOT metabolized | Compound NOT metabolized | Compound NOT metabolized | Compound NOT metabolized | Compound NOT metabolized | Compound NOT metabolized | Compound NOT metabolized | Compound NOT metabolized | CN(C/C=C/C#CC(C)(C)C)Cc1cccc2ccccc12 [TERBINAFINE]
Compound NOT metabolized | Compound NOT metabolized | Compound NOT metabolized | Compound NOT metabolized | Compound NOT metabolized | Compound NOT metabolized | Compound NOT metabolized | Compound NOT metabolized | Compound NOT metabolized | Compound NOT metabolized | Compound NOT metabolized | Compound NOT metabolized | Compound NOT metabolized | Compound NOT metabolized | Compound NOT metabolized | Compound NOT metabolized | Compound NOT metabolized | Compound NOT metabolized | Compound NOT metabolized | Compound NOT metabolized | O=C(NCc1ccccc1)OCCO [BURAMATE]
Compound metabolized | Compound metabolized | Compound metabolized | Compound NOT metabolized | Compound NOT metabolized | Compound NOT metabolized | Compound metabolized | Compound metabolized | Compound metabolized | Compound metabolized | Compound metabolized | Compound NOT metabolized | Compound NOT metabolized | Compound metabolized | Compound NOT metabolized | Compound metabolized | Compound NOT metabolized | Compound NOT metabolized | Compound NOT metabolized | Compound NOT metabolized | C=CC[C@@H]1/C=C(\C)C[C@H](C)C[C@H](OC)[C@H]2O[C@@](O)(C(=O)C(=O)N3CCCC[C@H]3C(=O)O[C@H](/C(C)=C/[C@@H]3CC[C@@H](O)[C@H](OC)C3)[C@H](C)[C@@H](O)CC1=O)[C@H](C)C[C@@H]2OC.O [TACROLIMUS]

Structure (SMILES) | Bacterial Biotransformation [1] | Bacterial Biotransformation [2] | Bacterial Biotransformation [3] | Bacterial Biotransformation [4] | Bacterial Biotransformation [5] | Bacterial Biotransformation [6] | Bacterial Biotransformation [7] | Bacterial Biotransformation [8] | Bacterial Biotransformation [9] | Bacterial Biotransformation [10] | Bacterial Biotransformation [11] | Bacterial Biotransformation [12] | Bacterial Biotransformation [13] | Bacterial Biotransformation [14] | Bacterial Biotransformation [15] | Bacterial Biotransformation [16] | Bacterial Biotransformation [17] | Bacterial Biotransformation [18] | Bacterial Biotransformation [19] | Bacterial Biotransformation [20]
CCCCCNC(=N)N/N=C/c1c[nH]c2ccc(OC)cc12.O=C(O)/C=C\C(=O)O [TEGASEROD MALEATE] | Compound NOT metabolized | Compound NOT metabolized | Compound NOT metabolized | Compound NOT metabolized | Compound NOT metabolized | Compound NOT metabolized | Compound NOT metabolized | Compound NOT metabolized | Compound NOT metabolized | Compound NOT metabolized | Compound NOT metabolized | Compound NOT metabolized | Compound NOT metabolized | Compound NOT metabolized | Compound NOT metabolized | Compound NOT metabolized | Compound NOT metabolized | Compound NOT metabolized | Compound NOT metabolized | Compound NOT metabolized
